Measurements from patent publication US10131652B2, “Pyrimidinyloxy benzene derivatives as herbicides” (E. I. DU PONT DE NEMOURS AND COMPANY, priority 2014, dated 2018).
Like-named read-outs stand apart in the source and are kept apart here.

Assays:
Experiment in all cases: Test F pre-/postemergence plant response
Format in all cases: in vivo
[1] = system: green foxtail (Setaria viridis); conditions: Setaria viridis, pre-emergence, Preemergence, scale 0 to 100, read-out: Plant response rating, Foxtail, Green
Text: (§1) Seeds of plant species selected from corn (Zea mays), soybean (Glycine max), velvetleaf (Abutilon theophrasti), lambsquarters (Chenopodium album), wild poinsettia (Euphorbia heterophylla), palmer pigweed (Amaranthus palmeri), waterhemp (common waterhemp, Amaranthus rudis), surinam grass (Brachiaria decumbens), large (Lg) crabgrass (Digitaria sanguinalis), Brazilian crabgrass (Digitaria horizontalis), fall panicum (Panicum dichotomiflorum), giant foxtail (Setaria faberii), green foxtail (Setaria viridis), goosegrass (Eleusine indica), johnsongrass (Sorghum halepense), ragweed (common ragweed, Ambrosia elatior), barnyardgrass (Echinochloa crus-galli), sandbur (southern sandbur, Cenchrus echinatus), arrowleaf sida (Sida rhombifolia), Italian ryegrass (Lolium multiflorum), dayflower (Virginia (VA) dayflower, Commelina virginica), field bindweed (Convolvulus arvensis), cocklebur (common cocklebur, Xanthium strumarium), momingglory (Ipomoea coccinea), nightshade (eastern black nightshade, Solanum ptycanthum), kochia (Kochia scoparia), yellow nutsedge (Cyperus esculentus), and hairy beggarticks (Bidens pilosa), were planted into a silt loam soil and treated preemergence with test chemicals formulated in a non-phytotoxic solvent mixture which included a surfactant.
(§2) At the same time, plants from these crop and weed species and also waterhemp_RES1, (ALS & Triazine resistant common waterhemp, Amaranthus rudis), and waterhemp_RES2, (ALS & HPPD resistant common waterhemp, Amaranthus rudis) were treated with postemergence applications of test chemicals formulated in the same manner. Plants ranged in height from 2 to 18 cm for postemergence treatments (1- to 4-leaf stage).
(§3) Treated plants and controls were maintained in a greenhouse for 14 to 21 days, after which time all species were compared to controls and visually evaluated. Plant response ratings, summarized in Table F, are based on a scale of 0 to 100 where 0 is no effect and 100 is complete control. A dash (-) response means no test result.

[2] = system: morningglory (Ipomoea coccinea); conditions: Ipomoea, pre-emergence, scale 0 to 100, read-out: Plant response rating, Morningglory
Text: as §1, §2, §3

[3] = system: sandbur (southern sandbur, Cenchrus echinatus); conditions: Cenchrus echinatus, scale 0 to 100, read-out: Plant response rating, Sandbur
Text: as §1, §2, §3

[4] = system: dayflower (Virginia (VA) dayflower, Commelina virginica); conditions: Commelina virginica, scale 0 to 100, read-out: Plant response rating, Dayflower, VA
Text: as §1, §2, §3

[5] = system: goosegrass (Eleusine indica); conditions: Eleusine indica, pre-emergence, scale 0 to 100, read-out: Plant response rating, Goosegrass
Text: as §1, §2, §3

[6] = system: fall panicum (Panicum dichotomiflorum); conditions: Panicum dichotomiflorum, scale 0 to 100, read-out: Plant response rating, Panicum, Fall
Text: as §1, §2, §3

corn (Zea mays) = conditions: Zea mays, scale 0 to 100
Text: as §1, §2, §3

[7] = system: johnsongrass (Sorghum halepense); conditions: Sorghum halepense, pre-emergence, scale 0 to 100, read-out: Plant response rating, Johnsongrass
Text: as §1, §2, §3

[8] = system: giant foxtail (Setaria faberii); conditions: Setaria faberi, pre-emergence, scale 0 to 100, read-out: Plant response rating, Foxtail, Giant
Text: as §1, §2, §3

[9] = system: lambsquarters (Chenopodium album); conditions: Chenopodium album, pre-emergence, Preemergence, scale 0 to 100, read-out: Plant response rating, Lambsquarters
Text: as §1, §2, §3

[10] = system: palmer pigweed (Amaranthus palmeri); conditions: Amaranthus palmeri, scale 0 to 100, read-out: Plant response rating, Pigweed, Palmer
Text: as §1, §2, §3

soybean (Glycine max) = conditions: Glycine max, scale 0 to 100, read-out: Plant response rating, Soybean
Text: as §1, §2, §3

[11] = system: waterhemp (common waterhemp, Amaranthus rudis); conditions: Amaranthus tuberculatus, scale 0 to 100, read-out: Plant response rating, Waterhemp
Text: as §1, §2, §3

[12] = system: wild poinsettia (Euphorbia heterophylla); conditions: Euphorbia heterophylla, scale 0 to 100, read-out: Plant response rating, Poinsettia, Wild
Text: as §1, §2, §3

[13] = system: field bindweed (Convolvulus arvensis); conditions: Convolvulus arvensis, scale 0 to 100, read-out: Plant response rating, Field Bindweed
Text: as §1, §2, §3

[14] = system: Brazilian crabgrass (Digitaria horizontalis); conditions: Digitaria horizontalis, scale 0 to 100, read-out: Plant response rating, Crabgrass, Brazil
Text: as §1, §2, §3

[15] = post-emergence, 31 g ai/ha Postemergence
[16] = post-emergence, 62 g ai/ha Postemergence
[17] = pre-emergence, 31 g ai/ha Preemergence
[18] = pre-emergence, 62 g ai/ha Preemergence

Question: Which results are given for `Fc1cccc(Oc2ncc(Cl)cn2)c1-c1cc(C(F)F)on1` [Compound 55, 5-chloro-2-[2-[5-(difluoromethyl)-3-isoxazolyl]-3-fluorophenoxy]pyrimidine]?
Answer: pest or weed control at 31 g/ha ([1]; 31 g ai/ha): 20%; pest or weed control at 62 g/ha [1]: 70%; pest or weed control at 31 g/ha ([2]; 31 g ai/ha Preemergence): 30%; pest or weed control at 62 g/ha ([2]; Preemergence): 98%; pest or weed control at 31 g/ha [3, 15]: 25%; pest or weed control at 62 g/ha [3, 16]: 15%; pest or weed control at 31 g/ha [3, 17]: 0%; pest or weed control at 62 g/ha ([3]; pre-emergence, Preemergence): 0%; pest or weed control at 31 g/ha [4, 15]: 70%; pest or weed control at 31 g/ha [4, 17]: 60%; pest or weed control at 62 g/ha [4, 18]: 40%; pest or weed control at 31 g/ha ([5]; 31 g ai/ha Preemergence): 5%; pest or weed control at 62 g/ha ([5]; Preemergence): 50%; pest or weed control at 31 g/ha [6, 15]: 40%; pest or weed control at 62 g/ha [6, 16]: 30%; pest or weed control at 31 g/ha [6, 17]: 90%; pest or weed control at 62 g/ha ([6]; pre-emergence, Preemergence): 100%; Corn plant response rating (crop injury, 0 = no effect, 100 = complete kill) at 31 g/ha (corn (Zea mays); [15]): 15%; Corn plant response rating (crop injury, 0 = no effect, 100 = complete kill) at 62 g/ha (corn (Zea mays); [16]): 20%; Corn plant response rating (crop injury, 0 = no effect, 100 = complete kill) at 31 g/ha (corn (Zea mays); [17]): 0%; Corn plant response rating (crop injury, 0 = no effect, 100 = complete kill) at 62 g/ha (corn (Zea mays); [18]): 40%; pest or weed control at 31 g/ha ([7]; 31 g ai/ha Preemergence): 20%; pest or weed control at 62 g/ha ([7]; Preemergence): 90%; pest or weed control at 31 g/ha ([8]; 31 g ai/ha Preemergence): 90%; pest or weed control at 62 g/ha ([8]; 62 g ai/ha Preemergence): 98%; pest or weed control at 31 g/ha ([9]; 31 g ai/ha): 100%; pest or weed control at 62 g/ha [9]: 100%; pest or weed control at 31 g/ha [10, 15]: 98%; pest or weed control at 62 g/ha [10, 16]: 98%; pest or weed control at 31 g/ha [10, 17]: 75%; pest or weed control at 62 g/ha ([10]; pre-emergence, Preemergence): 100%; plant injury at 31 g/ha (soybean (Glycine max); [15]): 70%; plant injury at 62 g/ha (soybean (Glycine max); [16]): 95%; plant injury at 31 g/ha (soybean (Glycine max); [17]): 40%; plant injury at 62 g/ha (soybean (Glycine max); pre-emergence, Preemergence): 50%; pest or weed control at 31 g/ha [11, 15]: 90%; pest or weed control at 62 g/ha [11, 16]: 100%; pest or weed control at 31 g/ha [11, 17]: 100%; pest or weed control at 62 g/ha ([11]; pre-emergence, Preemergence): 100%; pest or weed control at 31 g/ha [12, 15]: 35%; pest or weed control at 62 g/ha [12, 16]: 45%; pest or weed control at 31 g/ha [12, 17]: 0%; pest or weed control at 62 g/ha ([12]; pre-emergence, Preemergence): 30%; pest or weed control at 31 g/ha [13, 15]: 25%; pest or weed control at 62 g/ha [13, 16]: 70%; pest or weed control at 31 g/ha [13, 17]: 0%; pest or weed control at 62 g/ha [13, 18]: 10%; pest or weed control at 31 g/ha [14, 15]: 40%; pest or weed control at 62 g/ha [14, 16]: 30%; pest or weed control at 31 g/ha [14, 17]: 75%; pest or weed control at 62 g/ha [14, 18]: 100%
